“And” between values parts separate entries of the source, which are not always exact repeats. Equal entries are not always repeated. Toxic doses and inconclusive results are not listed.
Tested on: BDF1 mice, P388 leukemia ip, median survival T/C
Assay: NCI In Vivo Anticancer Drug Screen. Data for tumor model P388 Leukemia (intraperitoneal) in B6D2F1 (BDF1) mice
Conditions: endpoint: median survival time, higher = longer survival
Summary of the method: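 Survival ratio, drug arm over vehicle arm, in mice with a transplanted tumour.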

[1] = dose: 12.5 mg/kg/injection, schedule: Q01DX009 (ip), vehicle: saline
[2] = dose: 100.0 mg/kg/injection, schedule: Q01DX009 (ip), vehicle: saline
[3] = dose: 100.0 mg/kg/injection, schedule: Q04DX003 (ip), vehicle: saline
[4] = dose: 200.0 mg/kg/injection, schedule: Q01DX009 (ip), vehicle: saline
[5] = dose: 200.0 mg/kg/injection, schedule: Q04DX003 (ip), vehicle: saline
[6] = dose: 50.0 mg/kg/injection, schedule: Q01DX009 (ip), vehicle: saline with Tween-80
[7] = dose: 30.0 mg/kg/injection, schedule: Q01DX009 (ip), vehicle: saline with Tween-80
[8] = dose: 100.0 mg/kg/injection, schedule: Q01DX001 (ip), vehicle: saline sonified
[9] = dose: 200.0 mg/kg/injection, schedule: Q01DX001 (ip), vehicle: saline sonified
[10] = dose: 25.0 mg/kg/injection, schedule: Q01DX009 (ip), vehicle: saline
[11] = dose: 100.0 mg/kg/injection, schedule: Q01DX009 (ip), vehicle: saline with Tween-80
[12] = dose: 200.0 mg/kg/injection, schedule: Q01DX009 (ip), vehicle: saline with Tween-80
[13] = dose: 50.0 mg/kg/injection, schedule: Q01DX009 (ip), vehicle: saline

In the case of `COCC(O)Cn1ccnc1[N+](=O)[O-]` (centres undefined), the T/C (dose: 540.0 mg/kg/injection, schedule: Q01DX001 (ip), vehicle: saline) is reported as 104 % of control, the T/C (dose: 600.0 mg/kg/injection, schedule: Q01DX001 (ip), vehicle: saline) is reported as 92 % of control and 101 % of control and the T/C (dose: 900.0 mg/kg/injection, schedule: Q01DX001 (ip), vehicle: saline) is reported as 107 % of control. The T/C (dose: 1000.0 mg/kg/injection, schedule: Q01DX001 (ip), vehicle: saline) was 99 % of control and the T/C (dose: 1500.0 mg/kg/injection, schedule: Q01DX001 (ip), vehicle: saline) was 104 % of control.

With `c1ccc(C(c2ccccc2)[n+]2ccccc2)cc1` the T/C (dose: 3.13 mg/kg/injection, schedule: Q01DX009 (ip), vehicle: saline) was 91 % of control and the T/C [1] was 114 % of control.

For `COc1ccc(-c2cc(-c3ccc(Cl)cc3)no2)cc1`, the T/C (dose: 100.0 mg/kg/injection, schedule: Q01DX009 (ip), vehicle: Klucel (hydroxypropylcellulose) (HPC)) was 90 % of control, the T/C (dose: 100.0 mg/kg/injection, schedule: Q04DX003 (ip), vehicle: Klucel (hydroxypropylcellulose) (HPC)) was 100 % of control and the T/C (dose: 200.0 mg/kg/injection, schedule: Q01DX009 (ip), vehicle: Klucel (hydroxypropylcellulose) (HPC)) was 90 % of control. The T/C (dose: 200.0 mg/kg/injection, schedule: Q04DX003 (ip), vehicle: Klucel (hydroxypropylcellulose) (HPC)) was 100 % of control, the T/C (dose: 400.0 mg/kg/injection, schedule: Q01DX009 (ip), vehicle: Klucel (hydroxypropylcellulose) (HPC)) was 100 % of control and the T/C (dose: 400.0 mg/kg/injection, schedule: Q04DX003 (ip), vehicle: Klucel (hydroxypropylcellulose) (HPC)) was 100 % of control.

In the case of `CNC(C)(C)CO`, the T/C [2] is reported as 105 % of control, the T/C [3] is reported as 104 % of control and the T/C [4] is reported as 115 % of control. For the same molecule, the T/C [5] was 95 % of control and the T/C (dose: 400.0 mg/kg/injection, schedule: Q04DX003 (ip), vehicle: saline) was 95 % of control.

For `CCOC(=O)c1ccc(NC(=O)CCl)cc1`, the T/C (dose: 6.25 mg/kg/injection, schedule: Q01DX010 (ip), vehicle: saline) was 104 % of control, the T/C (dose: 12.5 mg/kg/injection, schedule: Q01DX010 (ip), vehicle: saline) was 100 % of control and the T/C (dose: 25.0 mg/kg/injection, schedule: Q01DX010 (ip), vehicle: saline) was 100 % of control. For the same molecule, the T/C (dose: 50.0 mg/kg/injection, schedule: Q01DX010 (ip), vehicle: saline) was 100 % of control.

`NC(=S)N/N=C\c1nnc(N)s1` was tested, and the T/C [6] was 90 % of control.

In the case of `CC(C)(C)NC(=S)N/N=C/c1cc(Cl)cc(Cl)c1O`, the T/C (dose: 1.56 mg/kg/injection, schedule: Q01DX009 (ip), vehicle: saline with Tween-80) is reported as 94 % of control, the T/C (dose: 3.12 mg/kg/injection, schedule: Q01DX009 (ip), vehicle: saline with Tween-80) is reported as 100 % of control and the T/C (dose: 6.25 mg/kg/injection, schedule: Q01DX009 (ip), vehicle: saline with Tween-80) is reported as 99 % of control.

With `CCCCCCCCCCCCCCSC(CC(=O)O)C(=O)O` (centres undefined) the T/C (dose: 15.0 mg/kg/injection, schedule: Q01DX009 (ip), vehicle: saline with Tween-80) was 87 % of control, the T/C [7] was 98 % of control and the T/C (dose: 60.0 mg/kg/injection, schedule: Q01DX009 (ip), vehicle: saline with Tween-80) was 94 % of control.

With `Cn1nc([N+](=O)[O-])sc1=N` the T/C (dose: 50.0 mg/kg/injection, schedule: Q01DX001 (ip), vehicle: saline sonified) was 105 % of control, the T/C [8] was 105 % of control and the T/C [9] was 110 % of control.

For `CNC(=N)c1ccc(NC(=N)c2ccc(NC(=N)c3ccc(NC(=N)c4ccc(C(=N)NC)cc4)cc3)cc2)cc1`, the T/C (dose: 6.0 mg/kg/injection, schedule: Q01DX009 (ip), vehicle: saline with Tween-80) was 120 % of control, the T/C (dose: 13.0 mg/kg/injection, schedule: Q01DX009 (ip), vehicle: saline with Tween-80) was 166 % of control and 175 % of control and the T/C (dose: 18.0 mg/kg/injection, schedule: Q04DX003 (ip), vehicle: saline with Tween-80) was 100 % of control. For the same molecule, the T/C (dose: 20.0 mg/kg/injection, schedule: Q01DX009 (ip), vehicle: saline with Tween-80) was 157 % of control and 165 % of control, the T/C (dose: 20.0 mg/kg/injection, schedule: Q04DX003 (ip), vehicle: saline with Tween-80) was 109 % of control and the T/C (dose: 26.0 mg/kg/injection, schedule: Q04DX003 (ip), vehicle: saline with Tween-80) was 116 % of control. For the same molecule, the T/C [7] was 214 % of control, the T/C (dose: 40.0 mg/kg/injection, schedule: Q04DX003 (ip), vehicle: saline with Tween-80) was 154 % of control and the T/C (dose: 80.0 mg/kg/injection, schedule: Q04DX003 (ip), vehicle: saline with Tween-80) was 90 % of control.

With `C[N+]1=C2CCCCC2=C(N)CC1` the T/C (dose: 6.25 mg/kg/injection, schedule: Q01DX009 (ip), vehicle: saline) was 110 % of control, the T/C (dose: 6.25 mg/kg/injection, schedule: Q04DX003 (ip), vehicle: saline sonified) was 100 % of control and the T/C [1] was 100 % of control. For the same molecule, the T/C (dose: 12.5 mg/kg/injection, schedule: Q04DX003 (ip), vehicle: saline sonified) was 100 % of control, the T/C [10] was 110 % of control and the T/C (dose: 25.0 mg/kg/injection, schedule: Q04DX003 (ip), vehicle: saline sonified) was 100 % of control.

For `CC[N+](C)(CC)CCC[n+]1c(-c2ccccc2)c2cc(N)ccc2c2ccc(N)cc21`, the T/C (dose: 1.5 mg/kg/injection, schedule: Q01DX009 (ip), vehicle: saline) was 107 % of control, the T/C (dose: 3.0 mg/kg/injection, schedule: Q01DX009 (ip), vehicle: saline) was 100 % of control and the T/C (dose: 3.12 mg/kg/injection, schedule: Q04DX003 (ip), vehicle: saline) was 100 % of control. For the same molecule, the T/C (dose: 6.25 mg/kg/injection, schedule: Q04DX003 (ip), vehicle: saline) was 100 % of control.

With `O=c1cc(O)ccn1CCc1cccs1` the T/C (dose: 12.5 mg/kg/injection, schedule: Q01DX009 (ip), vehicle: saline with Tween-80) was 109 % of control, the T/C (dose: 25.0 mg/kg/injection, schedule: Q01DX009 (ip), vehicle: saline with Tween-80) was 109 % of control and the T/C [6] was 121 % of control. For the same molecule, the T/C [11] was 105 % of control, the T/C (dose: 100.0 mg/kg/injection, schedule: Q04DX003 (ip), vehicle: saline with Tween-80) was 114 % of control and the T/C [12] was 112 % of control. The T/C (dose: 200.0 mg/kg/injection, schedule: Q04DX003 (ip), vehicle: saline with Tween-80) was 110 % of control, the T/C (dose: 400.0 mg/kg/injection, schedule: Q01DX009 (ip), vehicle: saline with Tween-80) was 110 % of control and the T/C (dose: 400.0 mg/kg/injection, schedule: Q04DX003 (ip), vehicle: saline with Tween-80) was 119 % of control.

With `C#CCOCC(CCl)OC(N)=O` (centres undefined) the T/C [6] was 110 % of control, the T/C [11] was 114 % of control and the T/C [3] was 110 % of control. For the same molecule, the T/C [12] was 107 % of control and the T/C [5] was 120 % of control.

For `CC(=O)Nc1ccc(NC2=NCCO2)cc1`, the T/C (dose: 50.0 mg/kg/injection, schedule: Q01DX001 (ip), vehicle: saline with Tween-80) was 100 % of control, the T/C (dose: 100.0 mg/kg/injection, schedule: Q01DX001 (ip), vehicle: saline with Tween-80) was 95 % of control and the T/C (dose: 200.0 mg/kg/injection, schedule: Q01DX001 (ip), vehicle: saline with Tween-80) was 90 % of control.

With `O=C(C[n+]1ccc2ccccc2c1)c1ccc(Br)cc1` the T/C (dose: 7.03 mg/kg/injection, schedule: Q04DX003 (ip), vehicle: saline) was 100 % of control, the T/C [1] was 114 % of control and the T/C (dose: 14.06 mg/kg/injection, schedule: Q04DX003 (ip), vehicle: saline) was 108 % of control. The T/C [10] was 109 % of control, the T/C (dose: 28.12 mg/kg/injection, schedule: Q04DX003 (ip), vehicle: saline) was 100 % of control and the T/C [13] was 119 % of control. For the same molecule, the T/C (dose: 56.25 mg/kg/injection, schedule: Q04DX003 (ip), vehicle: saline) was 95 % of control and the T/C (dose: 75.0 mg/kg/injection, schedule: Q01DX009 (ip), vehicle: saline) was 112 % of control.

With `CC1(C)N=C(N)Nc2nnc(-c3cccc(Cl)c3)n21` the T/C [8] was 105 % of control, the T/C [9] was 100 % of control and the T/C (dose: 400.0 mg/kg/injection, schedule: Q01DX001 (ip), vehicle: saline sonified) was 100 % of control.

With `COC(=O)C(C)CN1CCCCCC1` (centres undefined) the T/C [13] was 109 % of control, the T/C [2] was 90 % of control and the T/C [4] was 109 % of control.

In the case of `CN(C)CCCNc1c2ccccc2nc2cccc([N+](=O)[O-])c12`, the T/C (dose: 0.2 mg/kg/injection, schedule: Q04DX003 (ip), vehicle: saline) is reported as 124 % of control and the T/C (dose: 0.5 mg/kg/injection, schedule: Q04DX003 (ip), vehicle: saline) is reported as 101 % of control.
